Source: ChEMBL document CHEMBL5360558, “Molecular design, synthesis and anticancer activity of new thiopyrano[2,3-d]thiazoles based on 5-hydroxy-1,4-naphthoquinone (juglone)” (Eur J Med Chem, 2023)

Tests used:
[1] = Antileukemic activity against human CLL cell assessed as cell growth inhibition incubated for 72 hrs during remission period by MTT assay; type: functional, cell-based
[2] = Acute toxicity in C57BL/6 mouse assessed as animal death at 20 mg/kg,ip administration observed after 8 days; type: organism-based; details: in vivo, 192 h, time 8 day
SNB-75 = test: Anticancer activity against human SNB-75 cells assessed as cell growth at 10 uM incubated for 48 hrs by sulforhodamine B assay; type: functional; details: read-out: Activity
[3] = Acute toxicity in C57BL/6 mouse assessed as neutrophil count at 20 mg/kg,ip administration and observed after 22 days; type: organism-based; details: in vivo, 528 h, time 22 day
[4] = Cytotoxicity against mouse J774.2 cells assessed as cell growth inhibition incubated for 72 hrs by MTT assay; type: toxicity, cell-based
[5] = Acute toxicity in C57BL/6 mouse assessed as decrease in body mass at 6.6 mg/kg,ip administration; type: organism-based; details: in vivo
COLO 205 = test: Anticancer activity against human COLO 205 cells assessed as cell growth at 10 uM incubated for 48 hrs by sulforhodamine B assay; type: functional; details: read-out: Activity
[6] = Cytotoxicity against human HaCaT cells assessed as cell growth inhibition incubated for 72 hrs by MTT assay; type: toxicity, cell-based; details: HaCaT cells
[7] = Cytotoxicity against mouse NIH3T3 cells assessed as cell growth inhibition incubated for 72 hrs by MTT assay; type: toxicity, cell-based
[8] = Cytotoxicity against human HCT116-p53-null cells assessed as cell growth inhibition incubated for 72 hrs by MTT assay; type: functional, cell-based
SK-MEL-5 = test: Anticancer activity against human SK-MEL-5 cells assessed as cell growth at 10 uM incubated for 48 hrs by sulforhodamine B assay; type: functional; details: read-out: Activity
[9] = Cytotoxicity against human Lymphocyte cells assessed as cell growth inhibition incubated for 72 hrs by MTT assay; type: toxicity, cell-based; details: lymphocytes
[10] = Antileukemic activity against human CLL cell assessed as cell growth inhibition incubated for 72 hrs in presence of BST by MTT assay; type: functional, cell-based
[11] = Acute toxicity in C57BL/6 mouse assessed as animal death at 20 mg/kg,ip administration observed after 13 days; type: organism-based; details: in vivo, 312 h, time 13 day
K562 = test: Cytotoxicity against human K562 cells assessed as cell growth inhibition incubated for 72 hrs by MTT assay; type: functional, cell-based; details: K562, 72 h
[12] = Acute toxicity in C57BL/6 mouse assessed as decrease in body mass at 20 mg/kg,ip administration observed after 6 days; type: organism-based; details: in vivo, 144 h, time 6 day
[13] = Acute toxicity in C57BL/6 mouse assessed as leukopenia at 20 mg/kg,ip administration observed after 22 days; type: organism-based; details: in vivo, 528 h, time 22 day
[14] = Antileukemic activity against human CLL cell assessed as cell growth inhibition incubated for 72 hrs by MTT assay; type: functional, cell-based
HCT-116 = test: Cytotoxicity against human HCT-116 cells assessed as cell growth inhibition incubated for 72 hrs by MTT assay; type: functional, cell-based; details: HCT-116, 72 h
SK-MEL-2 = test: Anticancer activity against human SK-MEL-2 cells assessed as cell growth at 10 uM incubated for 48 hrs by sulforhodamine B assay; type: functional; details: read-out: Activity
KB 3-1 = test: Cytotoxicity against human KB 3-1 cells assessed as cell growth inhibition incubated for 72 hrs by MTT assay; type: functional, cell-based; details: KB 3-1, 72 h
M14 = test: Anticancer activity against human M14 cells assessed as cell growth at 10 uM incubated for 48 hrs by sulforhodamine B assay; type: functional; details: read-out: Activity
MDA-MB-435 = test: Anticancer activity against human MDA-MB-435 cells assessed as cell growth at 10 uM incubated for 48 hrs by sulforhodamine B assay; type: functional; details: read-out: Activity
A498 = test: Anticancer activity against human A498 cells assessed as cell growth at 10 uM incubated for 48 hrs by sulforhodamine B assay; type: functional; details: read-out: Activity
[15] = Acute toxicity in C57BL/6 mouse assessed as lymphocyte count at 20 mg/kg,ip administration and observed after 22 days; type: organism-based; details: in vivo, 528 h, time 22 day
[16] = Acute toxicity in C57BL/6 mouse assessed as anemia at 20 mg/kg,ip administration observed after 22 days; type: organism-based; details: in vivo, 528 h, time 22 day

COc1cccc2c1C(=O)c1c(O)c3c(c(O)c1C2=O)C[C@@](O)(C(=O)CO)C[C@@H]3O[C@H]1C[C@H](N)[C@H](O)[C@H](C)O1 [DOXORUBICIN]
IC50 [1]: 7330 nM
Activity [2]: Toxic
growth at 10 µM (SNB-75): -76.1%
Activity [3]: 45.05%
IC50 at 72 h [4]: 560 nM
Activity [5]: Toxic
growth at 10 µM (COLO 205): -81.6%
IC50 at 72 h [6]: 4560 nM
IC50 at 72 h [7]: 720 nM
IC50 [8]: 630 nM
growth at 10 µM (SK-MEL-5): -86.4%
IC50 at 72 h [9]: 10000 nM
IC50 [10]: 8600 nM
Activity [11]: Toxic
IC50 (K562): 590 nM
Activity [12]: Toxic
Activity [13]: Toxic
IC50 [14]: > 10000 nM
IC50 (HCT-116): 580 nM
growth at 10 µM (SK-MEL-2): -82.6%
IC50 (KB 3-1): 560 nM
growth at 10 µM (M14): -71.6%
growth at 10 µM (MDA-MB-435): -82.6%
growth at 10 µM (A498): -75.1%
Activity [15]: 50.35%
Activity [16]: Toxic
